The record followed here is patent US11046709B2, “Fused 1,4-diazepines as BET bromodomain inhibitors” (THE REGENTS OF THE UNIVERSITY OF MICHIGAN, priority 2017, dated 2021).

The subject of one assay is MDA-MB-231. The experiment in a line: Cell growth inhibition, 4-day proliferation assay, MDA-MB-231. Type of assay: cell-based. To be noted: Homo sapiens, MDA-MB-231, 96 h, read-out: Cell IC50 (nM) MDA-MB-231. The procedure:
(§1) The effect of representative Compounds of the Disclosure on cell viability was determined in a 4-day proliferation assay. Cells were maintained in the appropriate culture medium with 100/0 FBS at 37° C. and an atmosphere of 5% CO2. All the cell lines were used within three months of thawing fresh vials.
(§2) In general, cells were seeded in 96-well flat bottom (Corning COSTAR, Corning, N.Y., cat #3595) or white opaque cell culture plates (BD Falcon, cat #353296) at a density of 3,000-10,000 cells/well in 75 μl of culture medium. Compounds were serially diluted in the appropriate medium, and 75 μl of the diluted compounds were added to the appropriate wells of the cell plate. After the addition of compounds, the cells were incubated at 37° C. in an atmosphere of 5% CO2 for 4 days. Cell viability was determined using the CellTiter-Glo® Luminescent Cell Viability Assay Kit (Promega, Madison, Wis.) for leukemia cells and WST (2-(2-methoxy-4-nitrophenyl)-3-(4-nitrophenyl)-5-(2,4-disulfophenyl)-2H-tetrazolium, monosodium salt) Cell Counting-8 Kit (Dojindo Molecular Technologies, Inc., Rockville, Md.) for adherent cells according to the manufacturers' instructions.
(§3) For WST assay (adherent cells), WST-8 reagent was added to each well at a final concentration of 10% (v/v), and then the plates were incubated at 37° C. for 1-2 hours for color development. The absorbance was measured at 450 nm using a SPECTRAmax PLUS plate reader (Molecular Devices, Sunnyvale, Calif.). The readings were normalized to the DMSO-treated cells and the half maximal inhibitory concentration (IC50) was calculated by nonlinear regression (four parameters sigmoid fitted with variable slope, least squares fit, and no constraint) analysis using the GraphPad Prism 5 software (GraphPad Software, La Jolla, Calif.).
(§4) For CellTiter-Glo assay (suspension cells), 100 μl of CellTiter-Glo® Reagent was added to each well, and then the plates were incubated at room temperature for 10-20 minutes. The luminescent signal was measured using a Tecan Infinite M1000 multimode microplate reader (Tecan, Morrisville, N.C.). The readings were normalized to the DMSO-treated cells and the IC50 was calculated by nonlinear regression (four parameters sigmoid fitted with variable slope, least squares fit, and no constraint) analysis using the GraphPad Prism 5 software. See US 2014/0256706.
(§5) For a number of representative compounds in Table 5, their IC50 values in cell growth inhibition activity in the RS4;11 and MOLM-13 human leukemia cell lines and the MDA-MB-231 breast cancer cell line were evaluated using the WST-8 assay described in EXAMPLE 7, with the data shown in Table 7.

In a further assay the target is T1, recombinant BRD4 BD2 (Homo sapiens, UniProt O60885).
T1 construct: for recombinant BRD4 BD1 and BRD4 BD2 proteins
The assay is described as follows: Competitive fluorescence-polarization (FP) binding assay, BRD4 BD2. The protocol: Fluorescence Polarization (FP) competitive binding studies were carried out using a FAM labeled fluorescent probe, see, e.g., Cpd. No. 350 of US 2014/0256706, to determine binding affinities of representative Compounds of the Disclosure for recombinant BRD4 BD1 and BRD4 BD2 proteins. Equilibrium dissociation constants (Kd) values of the fluorescent probe to BRD4 BD1 and BD2 proteins were determined from protein saturation experiments by monitoring the total fluorescence polarization of mixtures composed with the fluorescent probe at a fixed concentration and proteins with increasing concentrations up to full saturation. Serial dilutions of testing proteins were mixed with the fluorescent probe to a final volume of 200 μl in the assay buffer (100 mM phosphate buffer, pH=6.5, 0.01% Triton X-100 (Sigma, 282103) being added right before assays). Final fluorescent probe concentration was 1.5 nM for both proteins. Plates were incubated at room temperature for 30 minutes with gentle shaking to assure equilibrium. FP values in millipolarization units (mP) were measured using the Infinite M-1000 plate reader (Tecan U.S., Research Triangle Park, N.C.) in Microfluor 1 96-well, black, round-bottom plates (Thermo Scientific, Waltham, Mass.) at an excitation wavelength of 485 nm and an emission wavelength of 530 nm. Kd values of the fluorescent probe, which were calculated by fitting the sigmoidal dose-dependent FP increases as a function of protein concentrations using Graphpad Prism 6.0 software (Graphpad Software, San Diego, Calif.), are 5.5 and 3.0 nM to BDR4 BD1 and 2, respectively.
The IC50 and Ki values of compounds were determined in a competitive binding experiment. See US 2014/0256706. Mixtures of 10 μl of the tested compounds in assay buffer with 40% Ethylene Glycol and 190 μl of preincubated protein/probe complex solution in the assay buffer (100 mM potassium phosphate, pH 6.5, 0.01% Triton X-100) were added into assay plates which were incubated at room temperature for 30 minutes with gentle shaking. Final concentrations of proteins were 10 and 6 nM in assays for BRD4 BD1 and BD2, respectively. Final probe concentration is 1.5 nM in both assays. Negative controls containing protein/probe complex only (equivalent to 0% inhibition), and positive controls containing only free probes (equivalent to 100% inhibition), were included in each assay plate. FP values were measured as described above. IC50 values were determined by nonlinear regression fitting of the competition curves. Instead of being calculated from IC50 values as described before. Ki values of competitive inhibitors were obtained directly by nonlinear regression fitting as well, based upon the Kd values of the probe to different proteins, and concentrations of the proteins and probes in the competitive assays (US 2014/0256706; Wang, FEBS Lett. 360:111 (1995); Zhang et al., Analytical Biochemistry, 331:138 (2004)).
Representative compounds in Table 5 were evaluated for their binding affinities to BRD4 BD1 and BD2 proteins using the Competitive Fluorescence-Polarization (FP) Assays described in Example 6, with the data included in Table 6.

The test system of the next assay is MOLM-13. The experiment in a line: Cell growth inhibition, 4-day proliferation assay, MOLM-13. Type of assay: cell-based. As to conditions: Homo sapiens, MOLM-13, 96 h, read-out: Cell IC50 (nM) MOLM13. The protocol: as §1, §2, §3, §4, §5
[1] abbreviates: 4-day proliferation assay, Table 4.

Molecules are shown by their SMILES. Read-outs that look alike come from different tables or passages of the source.

Usually IC50 stands for the point on the concentration scale where inhibition reaches its midpoint.

As for `Cc1c(C#Cc2ccc(CCCCO)cn2)sc2c1C(c1ccc(Cl)cc1)=N[C@@H](C)c1nnc(C)n1-2` [Cpd. No. 13], the IC50 worked out at 84.4 nM with MDA-MB-231 (setting [1]); 11.1 nM on recombinant BRD4 BD2 (competitive FP, Table 3, read-out: Binding Affinity BRD4-BD2 IC50); 23 nM with MOLM-13 (setting [1]).

`Cc1c(C#Cc2ccccn2)sc2c1C(c1ccc(Cl)cc1)=N[C@@H](C)c1nnc(C)n1-2` [Cpd. No. 2, (S)-4-(4-chlorophenyl)-3,6,9-trimethyl-2-(pyridin-2-ylethynyl)-6H-thieno[3,2-f][1,2,4]triazolo[4,3-a][1,4]diazepine]: the IC50 in the assay on MDA-MB-231 turned out to be 31 nM; on recombinant BRD4 BD2, 14.5 nM; with MOLM-13 it was 15.7 ± 0.43 nM.

As for `Cc1c(C#Cc2ccc(F)cn2)sc2c1C(c1ccc(Cl)cc1)=N[C@@H](C)c1nnc(C)n1-2` [Cpd. No. 31, (S)-4-(4-chlorophenyl)-2-((5-fluoropyridin-2-yl)ethynyl)-3,6,9-trimethyl-6H-thieno[3,2-f][1,2,4]triazolo[4,3-a][1,4]diazepine], the IC50 on recombinant BRD4 BD2 was 19.5 nM.

`Cc1c(C#CC2CCCC2)sc2c1C(c1ccc(Cl)cc1)=N[C@@H](C)c1nnc(C)n1-2` [Cpd. No. 29, (S)-4-(4-chlorophenyl)-2-(cyclopentylethynyl)-3,6,9-trimethyl-6H-thieno[3,2-f][1,2,4]triazolo[4,3-a][1,4]diazepine]: on recombinant BRD4 BD2, the IC50 turned out to be 10.3 nM.

Consider `Cc1c(C#Cc2ccccn2)sc2c1C(c1ccc(Cl)cc1)=NCc1nnc(C)n1-2` [Cpd. No. 1, 4-(4-chlorophenyl)-3,9-dimethyl-2-(pyridin-2-ylethynyl)-6H-thieno[3,2-f][1,2,4]triazolo[4,3-a][1,4]diazepine], for which the IC50 with MDA-MB-231 stood at 272 nM; at recombinant BRD4 BD2, 178 nM; with MOLM-13 it was 206 ± 21.9 nM.

On to `Cc1c(C#Cc2cn[nH]c2)sc2c1C(c1ccc(Cl)cc1)=N[C@@H](C)c1nnc(C)n1-2` [Cpd. No. 22, (S)-2-((1H-pyrazol-4-yl)ethynyl)-4-(4-chlorophenyl)-3,6,9-trimethyl-6H-thieno[3,2-f][1,2,4]triazolo[4,3-a][1,4]diazepine], for which the IC50 on recombinant BRD4 BD2 is 7.68 nM.

Regarding `Cc1c(C#CCCCO)sc2c1C(c1ccc(Cl)cc1)=N[C@@H](C)c1nnc(C)n1-2` [Cpd. No. 11, (S)-5-(4-(4-chlorophenyl)-3,6,9-trimethyl-6H-thieno[3,2-f][1,2,4]triazolo[4,3-a][1,4]diazepin-2-yl)pent-4-yn-1-ol], the IC50 is less than 1.7 nM in the assay with MDA-MB-231, 7.22 nM at recombinant BRD4 BD2 and 6.87 nM in the assay on MOLM-13.

In the case of `Cc1c(C#CCO)sc2c1C(c1ccc(Cl)cc1)=N[C@@H](C)c1nnc(C)n1-2` [Cpd. No. 10, (S)-3-(4-(4-chlorophenyl)-3,6,9-trimethyl-6H-thieno[3,2-f][1,2,4]triazolo[4,3-a][1,4]diazepin-2-yl)prop-2-yn-1-ol], the IC50 in the assay with MDA-MB-231 is 31.8 nM; on recombinant BRD4 BD2, 11.8 nM; in the assay with MOLM-13 it was 30.5 nM.

Regarding `Cc1c(C#CCN2CCN(C)CC2)sc2c1C(c1ccc(Cl)cc1)=N[C@@H](C)c1nnc(C)n1-2` [Cpd. No. 33, (S)-4-(4-chlorophenyl)-3,6,9-trimethyl-2-(3-(4-methylpiperazin-1-yl)prop-1-yn-1-yl)-6H-thieno[3,2-f][1,2,4]triazolo[4,3-a][1,4]diazepine], the IC50 on recombinant BRD4 BD2 stood at 42.2 nM.

As for `Cc1c(C#Cc2cnn(CCCO)c2)sc2c1C(c1ccc(Cl)cc1)=N[C@@H](C)c1nnc(C)n1-2` [Cpd. No. 12, (S)-3-(4-((4-(4-chlorophenyl)-3,6,9-trimethyl-6H-thieno[3,2-f][1,2,4]triazolo[4,3-a][1,4]diazepin-2-yl)ethynyl)-1H-pyrazol-1-yl)propan-1-ol], the IC50 in the assay on MDA-MB-231 was found to be 31.5 nM; on recombinant BRD4 BD2, 10.8 nM; in the assay with MOLM-13, 3.74 nM.

`Cc1c(C#Cc2nccs2)sc2c1C(c1ccc(Cl)cc1)=N[C@@H](C)c1nnc(C)n1-2` [Cpd. No. 35, (S)-4-(4-chlorophenyl)-3,6,9-trimethyl-2-(thiazol-2-ylethynyl)-6H-thieno[3,2-f][1,2,4]triazolo[4,3-a][1,4]diazepine]: the IC50 at recombinant BRD4 BD2 was 22 nM.

Consider `Cc1c(C#Cc2cncs2)sc2c1C(c1ccc(Cl)cc1)=N[C@@H](C)c1nnc(C)n1-2` [Cpd. No. 34, (S)-4-(4-chlorophenyl)-3,6,9-trimethyl-2-(thiazol-5-ylethynyl)-6H-thieno[3,2-f][1,2,4]triazolo[4,3-a][1,4]diazepine], for which, at recombinant BRD4 BD2, the IC50 was 21.8 nM.

Consider `Cc1c(C#Cc2ccc(N)cn2)sc2c1C(c1ccc(Cl)cc1)=N[C@@H](C)c1nnc(C)n1-2` [Cpd. No. 32, (S)-6-((4-(4-chlorophenyl)-3,6,9-trimethyl-6H-thieno[3,2-f][1,2,4]triazolo[4,3-a][1,4]diazepin-2-yl)ethynyl)pyridin-3-amine], for which, at recombinant BRD4 BD2, the IC50 was found to be 9.87 nM.

Regarding `Cc1c(C#Cc2cn[nH]c2)sc2c1C(c1ccc(Cl)cc1)=NCc1nnc(C)n1-2` [Cpd. No. 21, 2-((1H-pyrazol-4-yl)ethynyl)-4-(4-chlorophenyl)-3,9-dimethyl-6H-thieno[3,2-f][1,2,4]triazolo[4,3-a][1,4]diazepine], the IC50 at recombinant BRD4 BD2 came out at 37.4 nM.

As to `Cc1c(C#Cc2cncn2C)sc2c1C(c1ccc(Cl)cc1)=N[C@@H](C)c1nnc(C)n1-2` [Cpd. No. 30, (S)-4-(4-chlorophenyl)-3,6,9-trimethyl-2-((1-methyl-1H-imidazol-5-yl)ethynyl)-6H-thieno[3,2-f][1,2,4]triazolo[4,3-a][1,4]diazepine], the IC50 on recombinant BRD4 BD2 was 13.5 nM.

Regarding `COc1ccc(C#Cc2sc3c(c2C)C(c2ccc(Cl)cc2)=N[C@@H](C)c2nnc(C)n2-3)nc1` [Cpd. No. 36, (S)-4-(4-chlorophenyl)-2-((5-methoxypyridin-2-yl)ethynyl)-3,6,9-trimethyl-6H-thieno[3,2-f][1,2,4]triazolo[4,3-a][1,4]diazepine], the IC50 on recombinant BRD4 BD2 was determined as 11.7 nM.
